Reference: patent US20230372382A1, “USE OF ADENOSINE DIPHOSPHATE RIBOSE FOR ADJUVANT THERAPY WITH RADIATION AND/OR ANTI-CANCER TREATMENT” (PearlsInMires Co., Ltd., priority 2021, published 2023)

Assays:
[1] = tested on: H1975 cells; experiment: Cancer cell death verification (MTT cell viability); type: cell-based
Procedure: (§3) 3×10^3 Brain cancer (U-87MG), lung cancer (H1975), pancreatic cancer (Aspc-1), liver cancer (Hep G2), breast cancer (MDA-MB-231), colon cancer (HCT116), kidney cancer (Caki-1), gastric cancer (SNU-1) and ovarian cancer (OVCAR-3) cells were cultured in a 96-well plate under conditions of 37° C. and 5% CO2 for 24 hours, and then each cancer cell was treated with ADP-ribose at each concentration. After culturing for 24 hours under conditions of 37° C. and 5% CO2 again, 10 μl of 3-(4,5-dimethylthiazol-2-yl)-2,5-diphenyltetrazolium bromide reagent was added to each well and reacted for 1 hour. After the reaction was completed, the reagent was removed, 200 μl of dimethyl sulfoxide was added to each well, and the absorbance was measured to determine the concentration of half-lethality and maximum lethality compared to untreated cells.
3×10^3 H1975 cells were cultured in a 96-well plate for 24 hours under conditions of 37° C. and 5% CO2, treated with ADP-ribose at concentrations of 0.125, 0.25, 0.5, 1, 2, 4, 8, 16, and 32 μM, respectively, and cultured again for 24 hours under conditions of 37° C. and 5% CO2. Then, 10 μl of 3-(4,5-dimethylthiazol-2-yl)-2,5-diphenyltetrazolium bromide reagent was added to each well and reacted for 1 hour. After the reaction was completed, the reagent was removed, 200 μl of dimethyl sulfoxide was added to each well, and the absorbance was measured to confirm cell viability.

[2] = tested on: Brain cancer (U-87MG) cells; experiment: Xenograft model, combination with radiation, tumor volume; type: in vivo, BALB/c nude mice; details: U-87MG xenograft
Procedure: (§1) Brain cancer (U-87MG), pancreatic cancer (AsPC-1), breast cancer (MDA-MB-231), or kidney cancer (Caki-1) cells (1×10^7 cells) were inoculated into 5-week-old BALB/c nude mice on the back flank, respectively. Then, when tumors were grown to a volume of approximately 150 mm^3, the mice were divided into three groups: the control group (Control), 2 Gy dose of radiation alone, and a combination administration of 2 Gy dose of radiation+10 mg/kg of ADP-ribose (subcutaneous administration, 3 times a week). The irradiation was performed with an X-Rad 320 irradiator (Precision X-ray, North Branford, CT, USA), wherein the mice were placed by maintaining an appropriate distance from the radiation source for irradiation with a predetermined radiation dose. A lead shield was used to protect the body parts or organs from exposure to radiation, other than the cancerous part of the mouse. The irradiation was performed with a total of 2 Gy of radiation fractionated into two doses of 1 Gy each (for 2 days) at a dose rate of 300 kVp and 150 cGy/min using an X-ray beam filter composed of 12.5 mA and 2.0 mm Al. The tumor size was measured every 6 days using a digital caliper, and the results of changes in tumor volume were compared by the group.
(§2) Brain cancer (U-87MG) cells (1×10^7) were inoculated into 5-week-old BALB/c nude mice on the back flank, and the mice were divided into three groups: the control group, 2 Gy dose of radiation alone, and combination administration of 2 Gy dose radiation+10 mg/kg of ADP-ribose. When the tumors were grown to a volume of approximately 150 mm^3, 2 Gy dose of radiation was irradiated twice at 1 Gy each, and 10 mg/kg of ADP-ribose was injected subcutaneously 3 times a week. The tumor size was measured using a digital caliper, and the results of changes in tumor volume were compared by the group.

[3] = tested on: Brain cancer (U-87MG) cells; experiment: Cell death by combination treatment with anti-cancer drug (MTT); type: cell-based; details: Homo sapiens, ADP-ribose 1.6 μM in combination with bevacizumab, 24 hours, P<0.001
Procedure: 3×10^3 Brain cancer (U-87MG), lung cancer (H1975), pancreatic cancer (Aspc-1), liver cancer (Hep G2), breast cancer (MDA-MB-231), and colon cancer (HCT116) cells were cultured in a 96-well plate for 24 hours under conditions of 37° C. and 5% Ca2, respectively. […] After the treatment was terminated, the cells were cultured for 24 hours under conditions of 37° C. and 5% CO2 again, 10 μl of 3-(4,5-dimethylthiazol-2-yl)-2,5-diphenyltetrazolium bromide reagent was added to each well and reacted for 1 hour. After the reaction was completed, the reagent was removed, 200 μl of dimethyl sulfoxide was added to each well, and the absorbance was measured to compare the degree of cell death.
3×10^3 Brain cancer (U-87MG) cells were cultured in a 96-well plate for 24 hours under conditions of 37° C. and 5% CO2, treated with ADP-ribose at a concentration of 1.6 μM and bevacizumab at 15 mM, individually or in combination, and cultured for 24 hours under conditions of 37° C. and 5% CO2 again. Then, 10 μl of 3-(4,5-dimethylthiazol-2-yl)-2,5-diphenyltetrazolium bromide reagent was added to each well and reacted for 1 hour. After the reaction was completed, the reagent was removed, 200 μl of dimethyl sulfoxide was added to each well, and the absorbance was measured to confirm cell viability.

[4] = tested on: Hep G2 cells; experiment: ADP-ribose quantitative analysis (ELISA) in cancer cells; type: cell-based; details: 8 μM ADP-ribose, 24 hours, P<0.001
Procedure: After culturing, the culture medium was removed, the cells were washed with phosphate-buffered saline, and then RIPA buffer was added and the cells were left on ice for 20 minutes. After scraping the cells, the cells were put in a centrifuge tube and centrifuged for 10 minutes at 10,000 g and 4° C. The supernatant was obtained, and 1% SDS was added, and then the reaction product was boiled at 100° C. for 5 minutes and cooled on ice. The supernatant was centrifuged again at 10,000 g and 4° C. for 10 minutes to obtain the final supernatant, and ADP-ribose was quantitatively analyzed and compared using an ELISA analysis kit (Cell Biolabs, Inc., San Diego, CA, USA).
5×10^5 Hep G2 cells were divided into the untreated group and 8 μM ADP-ribose-treated group and cultured in Eagle's Minimum Essential Medium supplemented with 10% fetal calf serum+100 units/ml penicillin+100 μg/ml streptomycin under conditions of 37° C. and 5% CO2 for 24 hours. The medium of the cultured cells was removed, and the supernatant prepared by treatment with RIPA buffer and 1% sodium dodecyl sulfate (SDS) was used for ELISA analysis to detect and analyze ADP-ribose.

[5] = tested on: Kidney cancer (Caki-1) cells; experiment: Xenograft model, combination with radiation, tumor volume; type: in vivo, BALB/c nude mice; details: Caki-1 xenograft
Procedure: as §1
as §2, with “Kidney cancer (Caki-1)” for “Brain cancer (U-87MG)”, “Kidney cancer (Caki-1) cells (1×10^7)” for “Brain cancer (U-87MG) cells (1×10^7)”, “the control group (Control), 2 Gy” for “the control group, 2 Gy”, “Gy dose radiation+20 mg/kg of” for “Gy dose radiation+10 mg/kg of”, “each, and 20 mg/kg of” for “each, and 10 mg/kg of”

[6] = tested on: MDA-MB-231 cells; experiment: Cell death by combination treatment of ADP-ribose and radiation (MTT); type: cell-based; details: MDA-MB-231, 16 μM ADP-ribose in combination with 2 Gy radiation, 24 hours, P<0.001; 2 Gy alone about 90.6%
Procedure: 3×10^3 Brain cancer (U-87MG), lung cancer (H1975), pancreatic cancer (Aspc-1), liver cancer (Hep G2), breast cancer (MDA-MB-231), colon cancer (HCT116), and kidney cancer (Caki-1) cells were cultured in a 96-well plate for 24 hours under conditions of 37° C. and 5% CO2, treated with ADP-ribose or 2 or 5 Gy radiation alone or in combination with ADP-ribose and 2 Gy radiation, and cultured for 24 hours under conditions of 37° C. and 5% CO2 again. Then, 10 μl of 3-(4,5-dimethylthiazol-2-yl)-2,5-diphenyltetrazolium bromide reagent was added to each well and reacted for 1 hour. After the reaction was completed, the reagent was removed, 200 μl of dimethyl sulfoxide was added to each well, and the absorbance was measured to compare the degree of cell death.
3×10^3 MDA-MB-231 cells were cultured in a 96-well plate for 24 hours under conditions of 37° C. and 5% CO2, treated with 16 μM of ADP-ribose and 2 or 5 Gy dose of radiation individually or in combination, and cultured for 24 hours under conditions of 37° C. and 5% CO2 again. Then, 10 μl of 3-(4,5-dimethylthiazol-2-yl)-2,5-diphenyltetrazolium bromide reagent was added to each well and reacted for 1 hour. After the reaction was completed, the reagent was removed, 200 μl of dimethyl sulfoxide was added to each well, and the absorbance was measured to confirm cell viability.

[7] = tested on: Lung cancer (H1975) cells; experiment: Cell death by combination treatment with anti-cancer drug (MTT); type: cell-based; details: Homo sapiens, NCI-H1975; H1975, ADP-ribose 1.6 μM in combination with osimertinib 1 nM, 24 hours, P<0.001
[8] = tested on: Pancreatic cancer (AsPC-1) cells; experiment: Xenograft model, subcutaneous ADP-ribose, tumor volume; type: in vivo, BALB/c nude mice; details: AsPC-1 xenograft, 3 times a week, control about 2155.8
Procedure: Pancreatic cancer (AsPC-1) or kidney cancer (Caki-1) cells (1×10^7 cells) were inoculated into 5-week-old BALB/c nude mice on the back flank, and the mice were grown up to approximately 150 mm^3 of the tumor volume. Then, three concentrations of ADP-ribose were administered subcutaneously, intravenously, and orally 3 times a week. The tumor size was measured every 6 days using a digital caliper, and the changes in tumor volume were compared for each group.
Pancreatic cancer (AsPC-1) cells (1×10^7) were inoculated into 5-week-old BALB/c nude mice on the back flank, and the mice were divided into four groups: the control group (Control) and groups injected subcutaneously with 2, 20, and 40 mg/kg of ADP-ribose. When the tumors were grown to a volume of approximately 150 mm^3, each concentration of ADP-ribose was subcutaneously injected 3 times a week. The tumor size was measured using a digital caliper, and the results of changes in tumor volume were compared by the group.

[9] = tested on: AsPC-1 cells; experiment: Cancer cell death verification (MTT cell viability); type: cell-based
Procedure: as §3
3×10^3 AsPC-1 cells were cultured in a 96-well plate for 24 hours under conditions of 37° C. and 5% CO2, treated with ADP-ribose at concentrations of 0.125, 0.25, 0.5, 1, 2, 4, 8, 16, and 32 μM, respectively, and cultured again for 24 hours under conditions of 37° C. and 5% CO2. Then, 10 μl of 3-(4,5-dimethylthiazol-2-yl)-2,5-diphenyltetrazolium bromide reagent was added to each well and reacted for 1 hour. After the reaction was completed, the reagent was removed, 200 μl of dimethyl sulfoxide was added to each well, and the absorbance was measured to confirm cell viability.

[10] = ADP-ribose 10 mg/kg s.c. + 2 Gy radiation, P<0.001
[11] = ADP-ribose 20 mg/kg s.c. + 2 Gy radiation, P<0.001

Nc1ncnc2c1ncn2[C@@H]1O[C@H](COP(=O)(O)OP(=O)(O)OC[C@H]2O[C@@H](O)C(O)C2O)C(O)C1O (stereo partly shown) [ADP-ribose, adenosine diphosphate ribose]
maximum lethal dose (concentration at which almost all cells were killed) ([1]; H1975, 24 hours, MTT): 32 µM
cancer cell growth under a microscope ([1]; H1975, ADP-ribose treated vs control, FIG. 3A): inhibited from growing and killed
IC50 ([1]; Homo sapiens, NCI-H1975, 24 h, read-out: half-lethal dose (concentration at which about half of the cells were killed)): ~2000 nM
reduction of tumor volume compared to the control group [2, 10]: about 71.5%
reduction of tumor volume compared to the group treated with 2 Gy dose of radiation alone [2, 10]: about 50.7%
final tumor volume ([2]; ADP-ribose 10 mg/kg subcutaneous 3 times a week + 2 Gy radiation, control about 2545.2, 2 Gy alone about 1472.1): about 725.2 mm^3
viability at 1.6 µM [3]: ~18%
amount of ADP-ribose in cells compared to the control group [4]: remarkably increased significantly
reduction of tumor volume compared to the control group [5, 11]: about 70%
reduction of tumor volume compared to the group treated with 2 Gy dose of radiation alone [5, 11]: about 68%
final tumor volume ([5]; ADP-ribose 20 mg/kg subcutaneous 3 times a week + 2 Gy radiation, control about 2620.5, 2 Gy alone about 2454.5): about 786.4 mm^3
survival rate of cancer cells [6]: about 11.3%
viability at 1.6 µM [7]: ~0.9%
final tumor volume ([8]; 2 mg/kg subcutaneous): 1015.8 mm^3
final tumor volume ([8]; 20 mg/kg subcutaneous): 496.6 mm^3
final tumor volume ([8]; 40 mg/kg subcutaneous): 336.2 mm^3
maximum lethal dose (concentration at which almost all cells were killed) ([9]; AsPC-1, 24 hours, MTT): 32 µM
cancer cell growth under a microscope ([9]; AsPC-1, ADP-ribose treated vs control, FIG. 4A): inhibited from growing and killed
IC50 ([9]; Homo sapiens, ASPC1, 24 h, read-out: half-lethal dose (concentration at which about half of the cells were killed)): ~2000 nM
